In experiment [1] the target is T1, poly(ADP-ribose) polymerase 1 (PARP-1) (Homo sapiens, UniProt P09874).
T1 construct: gene PARP1
In words: real-time fluorescence anisotropy activity assay, purified PARP-1 with DNA duplex; competitive kinetics vs NAD+. It is filed as biochemical.

The target of experiment [2] is T1, poly(ADP-ribose) polymerase 1 (PARP-1). In words: fluorescence anisotropy kinetics, reaction rate vs NAD+ concentration ([…]). In kind it is biochemical.

T1 sequence (P09874 2-1014): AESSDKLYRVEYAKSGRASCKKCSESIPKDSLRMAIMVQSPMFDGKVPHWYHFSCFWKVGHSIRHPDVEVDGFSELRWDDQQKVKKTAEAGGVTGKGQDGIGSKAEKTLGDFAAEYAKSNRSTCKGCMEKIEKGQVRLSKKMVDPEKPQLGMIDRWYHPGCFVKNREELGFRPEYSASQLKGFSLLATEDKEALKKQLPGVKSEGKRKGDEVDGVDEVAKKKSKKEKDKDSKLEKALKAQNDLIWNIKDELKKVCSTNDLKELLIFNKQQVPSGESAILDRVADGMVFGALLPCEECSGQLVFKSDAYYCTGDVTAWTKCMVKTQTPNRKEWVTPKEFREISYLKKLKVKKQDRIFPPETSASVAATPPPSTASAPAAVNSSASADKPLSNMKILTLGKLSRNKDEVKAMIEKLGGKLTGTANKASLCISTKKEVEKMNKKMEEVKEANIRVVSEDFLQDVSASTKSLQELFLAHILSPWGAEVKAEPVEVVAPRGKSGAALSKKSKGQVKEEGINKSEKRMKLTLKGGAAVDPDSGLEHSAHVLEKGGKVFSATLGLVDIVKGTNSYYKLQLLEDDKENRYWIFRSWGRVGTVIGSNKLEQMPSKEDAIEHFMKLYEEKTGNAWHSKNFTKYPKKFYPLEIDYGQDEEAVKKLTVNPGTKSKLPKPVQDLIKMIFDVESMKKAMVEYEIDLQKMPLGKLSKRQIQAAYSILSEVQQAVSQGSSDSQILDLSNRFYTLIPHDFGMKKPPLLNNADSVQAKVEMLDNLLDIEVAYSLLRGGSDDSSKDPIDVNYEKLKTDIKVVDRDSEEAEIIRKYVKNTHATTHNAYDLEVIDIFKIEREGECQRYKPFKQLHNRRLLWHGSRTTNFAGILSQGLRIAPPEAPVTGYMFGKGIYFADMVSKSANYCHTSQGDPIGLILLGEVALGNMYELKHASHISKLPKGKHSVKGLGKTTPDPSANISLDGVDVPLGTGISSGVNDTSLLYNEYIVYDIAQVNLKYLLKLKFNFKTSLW

A word on the Ki: it is a measure of affinity in units of concentration, obtained from inhibition or displacement. A lower Ki goes with tighter binding. Compound `Cn1cnc2nc(N)[nH]c(=O)c21` [7-MG, 7-methylguanine] came in with a Ki in experiment [1] of 61 ± 9 µM. For `NC(=O)c1ccc[n+]([C@@H]2O[C@H](COP(=O)([O-])OP(=O)(O)OC[C@H]3O[C@@H](n4cnc5c(N)ncnc54)[C@H](O)[C@@H]3O)[C@@H](O)[C@H]2O)c1` [NAD^+], the “fluorescence anisotropy kinetics, reaction rate vs NAD+ concentration (0-2500 μM)” value in experiment [2] is on record as “Dependence of the PARP-1-catalyzed reaction rate on the NAD^+ concentration at different concentrations of 7-MG”.

Values taken from publication PMC7139824, “Molecular Mechanisms of PARP-1 Inhibitor 7-Methylguanine” (International Journal of Molecular Sciences, 2020).
